# Reference: patent US8778882B2, “Agent for strengthening calcium containing tissue and use thereof” (Hayashibara Co., Ltd., priority 2002, dated 2014)
# System: Mouse MC3T3-E1 cells
# Experiment: Calcium deposition by alizarin red-S staining
# Format: cell-based
# Set-up: key: +: same strength of red color as a negative control (only medium containing 0.2% (v/v) ethanol); ++: half strength of the positive control; +++: same strength of red color as a positive control (indomethacin)
# Details: MC3T3-E1, 20 mM each compound (so in the source), eight days, alizarin red-S red color judgement
# Text: Following Experiment 1 which investigates differentiating pre-osteoblastic cells into osteoblastic cells, some of organic compounds were investigated whether they actually enhance calcium deposition or not. Indomethacin (commercialized by Funakoshi, Co., Ltd., Tokyo, Japan) (positive control), kaempferol (commercialized by Funakoshi, Co., Ltd., Tokyo, Japan), hesperetin (commercialized by Funakoshi, Co., Ltd., Tokyo, Japan), gallic acid (commercialized by Nacalai Tesque, Kyoto, Japan), and coffeic acid (commercialized by Wako Pure Chemical Industries, Osaka, Japan) were selected as organic compounds. Mouse MC3T3-E1 cells were treated with 20 mM each above compound dissolved in 1 ml of α-MEM medium supplemented with 10% (v/v) fetal calf serum and containing 10 mM β-glycerophosphate. Since final ethanol concentration in the medium is 0.2% (v/v), α-MEM medium containing 0.2% (v/v) ethanol was prepared as a negative control. The cells were inoculated for eight days as changing the medium therewith to fresh medium with or without each sample per three days. The cells were applied to measure calcium deposition therein by usual alizarin red-S staining method. Briefly to the cells washed with 1 ml of Dulbecco phosphate buffer saline twice after removing the medium were added 1 ml of 50 (v/v) % ethanol aqueous solution and incubated for 10 minutes. After removing the 50 (v/v) % ethanol aqueous solution, the cells were incubated with 1 ml of distilled water for 10 minutes. After removing the water, the cells were applied with 1 ml of 1% (w/v) alizarin red-S solution, incubated for 10 minutes, and washed with 1 ml of distilled water for three times after removing alizarin red-S solution. Then, the calcium deposition amount was measured in a manner of judging red color on the plate bottom since deposited calcium was stained by the above treatment. The judgement criterion “+” means same strength of red color as a negative control (only medium containing 0.2% (v/v) ethanol), “+++” means same strength of red color as a positive control (indomethacin), and “++” means half strength of the positive control.
smiles,measurement,value
COc1ccc([C@@H]2CC(=O)c3c(O)cc(O)cc3O2)cc1O [Hesperetin],Calcium Deposition Amount,+++
